Data reported in ChEMBL document CHEMBL3885861, “Open TG-GATES”.

Species on record: Rattus norvegicus
Assay: Open TG-GATES - Regimen: Single
Format: toxicity, organism-based, Sprague-Dawley
Parameters: regimen Single, gender Male, age 6 weeks
Details: in vivo, po, 0 mg/kg, route gavage, dose level Control; for APTT / Bas / Eos / Fbg / Hb / Ht / Lym / MCH / MCHC / MCV / Mono / Neu / PT / Plat / RBC / Ret / WBC: tissue Blood; for KIDNEY_L / KIDNEY_R / KIDNEY_TOTAL: tissue Kidney; for LIVER: tissue Liver; for A/G / ALP / ALT / AST / BUN / CRE / Ca / Cl / DBIL / GLC / IP / K / LDH / Na / PL / RALB / TBIL / TC / TG / TP / gamma-GTP: tissue Plasma

## NC1=NC(=O)C(c2ccccc2)O1 (configuration not stated) [PEMOLINE]
3 h
  TERMINAL_BW: 210.7 g
  APTT: 17.2 s
  Bas: 0%
  Eos: 0.8%
  Fbg: 266 mg/dL
  Hb: 13.1 g/dL
  Ht: 38.2%
  Lym: 78.2%
  MCH: 21.6 pg
  MCHC: 34.3%
  MCV: 62.9 fL
  Mono: 3.8%
  Neu: 16.6%
  PT: 13.4 s
  Plat: 113.2 x10_4/uL
  RBC: 609.4 x10_4/ul
  Ret: 9.5%
  WBC: 87.4 x10_2/uL
  KIDNEY_L: 0.9 g
  KIDNEY_R: 1 g
  KIDNEY_TOTAL: 1.9 g
  LIVER: 9.1 g
  A/G: 1
  ALP: 1454.8 IU/L
  ALT: 44.8 IU/L
  AST: 77 IU/L
  BUN: 9.8 mg/dL
  CRE: 0.2 mg/dL
  Ca: 10.7 mg/dL
  Cl: 104.2 meq/L
  DBIL: 0.014 mg/dL
  GLC: 175.2 mg/dL
  IP: 8.8 mg/dL
  K: 4 meq/L
  LDH: 69.6 IU/L
  Na: 139.8 meq/L
  PL: 127 mg/dL
  RALB: 2.6 g/dL
  TBIL: 0.044 mg/dL
  TC: 78 mg/dL
  TG: 40.4 mg/dL
  TP: 5.3 g/dL
  gamma-GTP: 1.2 IU/L
6 h
  TERMINAL_BW: 209.5 g
  APTT: 17.2 s
  Bas: 0%
  Eos: 1%
  Fbg: 286.2 mg/dL
  Hb: 13.3 g/dL
  Ht: 39.1%
  Lym: 77.6%
  MCH: 22.4 pg
  MCHC: 34.1%
  MCV: 65.9 fL
  Mono: 3%
  Neu: 18%
  PT: 13.2 s
  Plat: 117 x10_4/uL
  RBC: 594.6 x10_4/ul
  Ret: 9.1%
  WBC: 88.4 x10_2/uL
  KIDNEY_L: 0.9 g
  KIDNEY_R: 0.9 g
  KIDNEY_TOTAL: 1.8 g
  LIVER: 8.8 g
  A/G: 1
  ALP: 1338 IU/L
  ALT: 41.2 IU/L
  AST: 72.8 IU/L
  BUN: 8.2 mg/dL
  CRE: 0.2 mg/dL
  Ca: 10.6 mg/dL
  Cl: 104.4 meq/L
  DBIL: 0.01 mg/dL
  GLC: 173.8 mg/dL
  IP: 9.4 mg/dL
  K: 3.9 meq/L
  LDH: 57.6 IU/L
  Na: 140.4 meq/L
  PL: 138.6 mg/dL
  RALB: 2.6 g/dL
  TBIL: 0.038 mg/dL
  TC: 84.2 mg/dL
  TG: 46.8 mg/dL
  TP: 5.3 g/dL
  gamma-GTP: 1.2 IU/L
9 h
  TERMINAL_BW: 210.1 g
  APTT: 17.2 s
  Bas: 0%
  Eos: 1%
  Fbg: 293.8 mg/dL
  Hb: 12.8 g/dL
  Ht: 37.5%
  Lym: 75.4%
  MCH: 21.5 pg
  MCHC: 34.2%
  MCV: 62.8 fL
  Mono: 3.2%
  Neu: 20.2%
  PT: 13.3 s
  Plat: 127.3 x10_4/uL
  RBC: 598.8 x10_4/ul
  Ret: 9.5%
  WBC: 89 x10_2/uL
  KIDNEY_L: 0.9 g
  KIDNEY_R: 0.9 g
  KIDNEY_TOTAL: 1.7 g
  LIVER: 8.1 g
  A/G: 1
  ALP: 1391.4 IU/L
  ALT: 41.6 IU/L
  AST: 74.8 IU/L
  BUN: 8.2 mg/dL
  CRE: 0.2 mg/dL
  Ca: 10.3 mg/dL
  Cl: 104.4 meq/L
  DBIL: 0.01 mg/dL
  GLC: 168.8 mg/dL
  IP: 10.7 mg/dL
  K: 3.8 meq/L
  LDH: 53.8 IU/L
  Na: 140.8 meq/L
  PL: 121.6 mg/dL
  RALB: 2.7 g/dL
  TBIL: 0.04 mg/dL
  TC: 74.2 mg/dL
  TG: 27.6 mg/dL
  TP: 5.3 g/dL
  gamma-GTP: 1.6 IU/L
24 h
  TERMINAL_BW: 216.7 g
  APTT: 17.2 s
  Bas: 0%
  Eos: 1%
  Fbg: 274.6 mg/dL
  Hb: 12.8 g/dL
  Ht: 37.7%
  Lym: 74.2%
  MCH: 21.8 pg
  MCHC: 34%
  MCV: 64.2 fL
  Mono: 3.8%
  Neu: 20.4%
  PT: 13 s
  Plat: 114.9 x10_4/uL
  RBC: 588.4 x10_4/ul
  Ret: 8.8%
  WBC: 92.6 x10_2/uL
  KIDNEY_L: 0.9 g
  KIDNEY_R: 0.9 g
  KIDNEY_TOTAL: 1.9 g
  LIVER: 9.9 g
  A/G: 1
  ALP: 1629.4 IU/L
  ALT: 50.4 IU/L
  AST: 79 IU/L
  BUN: 15 mg/dL
  CRE: 0.2 mg/dL
  Ca: 10.7 mg/dL
  Cl: 105 meq/L
  DBIL: 0.018 mg/dL
  GLC: 174.6 mg/dL
  IP: 8.2 mg/dL
  K: 4 meq/L
  LDH: 58.8 IU/L
  Na: 141 meq/L
  PL: 144.6 mg/dL
  RALB: 2.7 g/dL
  TBIL: 0.032 mg/dL
  TC: 82.6 mg/dL
  TG: 89 mg/dL
  TP: 5.4 g/dL
  gamma-GTP: 1 IU/L
